Measurements taken from ChEMBL document CHEMBL1201862, “PubChem BioAssay data set” (2004).
Activity calls are given as the source filed them.

What was measured:
BJ [1] = test: BJ-TERT-LT-ST fibroblast viability loss – cell-based, RAS-independent, luminescence, dose response (AID 1935); assay type: functional; conditions: Homo sapiens;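 also: BJ fibroblasts immortalized with TERT plus LT and ST oncogenes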
[2] = DRD fibroblast viability loss – cell-based, non-viral oncogenic, luminescence, dose response (AID 1934); assay type: functional; conditions: Homo sapiens
BJ [3] = test: cells; assay type: functional, cell-based; conditions: Homo sapiens
BJ [4] = test: growth inhibition of engineered Ras-driven BJ cells – cell-based, alamar blue fluorescence, cherrypicked samples, dose response (AID 2631); assay type: functional; conditions: Homo sapiens;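 also: confirmatory dose-response assay in RAS-dependent BJ fibroblasts engineered with TERT, LT and ST, with cytotoxicity read by fluorescence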
BJ [5] = test: BJ-TERT fibroblast viability loss – cell-based, RAS-independent, luminescence, dose response (AID 1933); assay type: functional; conditions: Homo sapiens
[6] = biological target: T1, Microphthalmia-associated transcription factor (Homo sapiens, UniProt O75030); test: reducers of TRPM1 reporter luminescence, concentration series – cell-based, SK-MEL-5, cherry-picked, set 3, MITF inhibitor project, dose response (AID 493073); assay type: functional;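 also: SK-MEL-5 melanoma cells with luciferase driven by the MITF target TRPM1 promoter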
T1 sequence (O75030 whole entry): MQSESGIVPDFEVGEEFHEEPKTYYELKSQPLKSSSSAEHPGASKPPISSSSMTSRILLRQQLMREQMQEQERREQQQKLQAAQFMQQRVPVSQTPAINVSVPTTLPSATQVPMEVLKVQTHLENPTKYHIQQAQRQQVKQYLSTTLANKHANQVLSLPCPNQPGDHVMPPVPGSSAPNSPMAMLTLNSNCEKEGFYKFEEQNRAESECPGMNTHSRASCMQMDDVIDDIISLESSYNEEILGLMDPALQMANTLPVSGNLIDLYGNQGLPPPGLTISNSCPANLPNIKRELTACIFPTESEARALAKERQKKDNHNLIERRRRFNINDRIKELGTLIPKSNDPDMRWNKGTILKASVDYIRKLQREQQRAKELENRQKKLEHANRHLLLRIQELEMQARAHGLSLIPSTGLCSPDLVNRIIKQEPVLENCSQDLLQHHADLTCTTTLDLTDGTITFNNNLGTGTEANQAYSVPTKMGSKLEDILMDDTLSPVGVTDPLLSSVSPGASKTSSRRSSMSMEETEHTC

[7] = Luminescence Cell-Based Dose Confirmation HTS to Identify Activators of 5'UTR Stem-Loop Driven Alpha-Synuclein mRNA Translation in H4 Neuroglioblastoma Cells. [Related pubchem assays: 1829 (Project Summary), 1814 (Primary HTS)]; assay type: functional
[8] = reduction of Shn3 3'UTR-driven luciferase in osteoblasts – cell-based, Clone20 osteoblasts, firefly luciferase, cherry-picked, dose response (AID 624132); assay type: functional;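 also: firefly luciferase luminescence from reporter carrying the Shn3 3'UTR in osteoblasts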
[9] = Luminescence Cell-Based Dose Response HTS to Identify Activators of Luciferase Translation or Activity in H4 […] Cells. [Related pubchem assays: 1829 (Project Summary), 1814 (Primary HTS)]; assay type: functional
INS1 = test: INS-1E survival protection against cytokine death – cell-based, luminescence, retest, dose response (AID 449756); assay type: functional; conditions: Rattus norvegicus;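 also: cell death triggered by IL-1 beta plus TNF-alpha plus IFN-gamma mixture; protective hits raise ATP signal compared with cytokine alone wells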
H4 = test: Luminescence Cell-Based Dose Response HTS to Identify Activators of 5'UTR Stem-Loop Driven Prion Protein mRNA Translation in H4 Neuroglioblastoma Cells. [Related pubchem assays: 1829 (Project Summary), 1814 (Primary HTS)]; assay type: functional; conditions: Homo sapiens
[10] = Luminescence Cell-Based Dose Retest to Confirm Inhibitors of Cancer Stem Cells. [Related pubchem assays (depositor defined):AID2717, AID2721]; assay type: functional; conditions: Homo sapiens
[11] = biological target: T2, E3 ubiquitin-protein ligase XIAP (Homo sapiens, UniProt P98170); test: Counter Screen using XIAP-Bir3 for Chemical Antagonists of Bir1/2 domains of IAP-family anti-apoptotic proteins. [Related pubchem assays (depositor defined):AID1018, AID1449, AID1514, AID1638, AID1749, AID1750, AID488957, AID488963]
T2 sequence (P98170 whole entry): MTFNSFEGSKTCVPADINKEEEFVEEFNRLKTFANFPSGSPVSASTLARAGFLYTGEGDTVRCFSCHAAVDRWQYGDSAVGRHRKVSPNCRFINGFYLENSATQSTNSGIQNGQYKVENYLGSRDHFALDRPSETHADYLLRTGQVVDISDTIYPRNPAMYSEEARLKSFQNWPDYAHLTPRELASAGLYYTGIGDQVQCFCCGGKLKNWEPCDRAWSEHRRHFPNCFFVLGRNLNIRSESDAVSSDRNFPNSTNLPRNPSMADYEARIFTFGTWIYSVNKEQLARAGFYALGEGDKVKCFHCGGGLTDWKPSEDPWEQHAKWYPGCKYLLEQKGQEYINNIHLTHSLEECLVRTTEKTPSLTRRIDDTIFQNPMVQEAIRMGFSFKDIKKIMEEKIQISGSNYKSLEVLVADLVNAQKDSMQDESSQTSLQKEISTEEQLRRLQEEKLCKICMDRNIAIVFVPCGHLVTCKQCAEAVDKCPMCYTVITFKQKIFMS

[12] = biological target: T2, E3 ubiquitin-protein ligase XIAP; test: small molecules displacing peptide from XIAP – biochemical, IAP family, fluorescence polarization (AID 1018); assay type: functional
[13] = biological target: DNA (cytosine-5)-methyltransferase 1 (Homo sapiens, UniProt P26358); test: inhibition of DNA methylation by DNMT1 – biochemical, fluorescent molecular beacon, confirmation (AID 602386); assay type: functional
Chain of DNA (cytosine-5)-methyltransferase 1 (P26358 whole entry): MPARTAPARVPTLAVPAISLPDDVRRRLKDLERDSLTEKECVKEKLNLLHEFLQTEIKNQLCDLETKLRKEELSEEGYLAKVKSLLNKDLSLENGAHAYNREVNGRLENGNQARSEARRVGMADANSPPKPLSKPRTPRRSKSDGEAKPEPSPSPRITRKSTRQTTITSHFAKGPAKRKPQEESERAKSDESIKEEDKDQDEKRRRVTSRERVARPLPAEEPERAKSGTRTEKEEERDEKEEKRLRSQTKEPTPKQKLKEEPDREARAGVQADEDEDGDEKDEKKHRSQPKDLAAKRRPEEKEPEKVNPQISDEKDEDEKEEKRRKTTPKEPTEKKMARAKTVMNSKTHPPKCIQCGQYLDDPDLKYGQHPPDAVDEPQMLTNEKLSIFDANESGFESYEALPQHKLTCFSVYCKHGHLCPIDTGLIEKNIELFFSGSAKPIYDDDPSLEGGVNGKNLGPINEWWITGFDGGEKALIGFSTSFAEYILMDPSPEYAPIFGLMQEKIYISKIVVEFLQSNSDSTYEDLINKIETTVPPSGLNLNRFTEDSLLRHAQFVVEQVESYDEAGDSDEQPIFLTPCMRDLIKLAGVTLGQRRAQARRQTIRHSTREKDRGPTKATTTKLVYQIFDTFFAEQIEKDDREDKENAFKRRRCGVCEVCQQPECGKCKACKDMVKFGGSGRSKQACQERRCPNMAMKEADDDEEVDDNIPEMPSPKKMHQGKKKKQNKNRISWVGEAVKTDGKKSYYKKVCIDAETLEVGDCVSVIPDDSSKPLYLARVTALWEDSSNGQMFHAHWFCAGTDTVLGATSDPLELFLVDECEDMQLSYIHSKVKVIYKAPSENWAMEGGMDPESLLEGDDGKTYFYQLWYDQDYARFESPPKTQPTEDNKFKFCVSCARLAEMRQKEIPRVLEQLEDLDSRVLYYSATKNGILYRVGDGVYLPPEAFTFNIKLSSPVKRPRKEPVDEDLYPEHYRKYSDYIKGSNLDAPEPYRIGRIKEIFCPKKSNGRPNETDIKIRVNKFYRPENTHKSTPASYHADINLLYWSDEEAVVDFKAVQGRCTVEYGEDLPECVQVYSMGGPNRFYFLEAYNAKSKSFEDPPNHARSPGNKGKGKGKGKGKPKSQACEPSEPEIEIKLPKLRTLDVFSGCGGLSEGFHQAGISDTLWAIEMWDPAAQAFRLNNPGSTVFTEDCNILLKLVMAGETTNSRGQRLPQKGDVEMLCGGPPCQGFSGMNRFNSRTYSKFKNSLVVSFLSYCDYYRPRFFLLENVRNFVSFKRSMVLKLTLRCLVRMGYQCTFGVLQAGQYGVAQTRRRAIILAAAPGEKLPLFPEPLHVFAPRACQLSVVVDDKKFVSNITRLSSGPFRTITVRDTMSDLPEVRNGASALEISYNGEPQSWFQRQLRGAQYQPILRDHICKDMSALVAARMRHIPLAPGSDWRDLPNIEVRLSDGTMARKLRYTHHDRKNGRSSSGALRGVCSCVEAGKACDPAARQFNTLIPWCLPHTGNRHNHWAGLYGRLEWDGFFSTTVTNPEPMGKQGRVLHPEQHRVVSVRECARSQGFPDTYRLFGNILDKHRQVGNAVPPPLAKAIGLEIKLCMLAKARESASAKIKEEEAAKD

Coagulation factor XII = biological target: T3, Coagulation factor XII (Homo sapiens, UniProt P00748); assay type: functional;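 also: activated factor XIIa alpha cleaving a fluorogenic AMC peptide substrate; inhibitor potency from loss of enzyme activity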
T3 sequence (P00748 whole entry): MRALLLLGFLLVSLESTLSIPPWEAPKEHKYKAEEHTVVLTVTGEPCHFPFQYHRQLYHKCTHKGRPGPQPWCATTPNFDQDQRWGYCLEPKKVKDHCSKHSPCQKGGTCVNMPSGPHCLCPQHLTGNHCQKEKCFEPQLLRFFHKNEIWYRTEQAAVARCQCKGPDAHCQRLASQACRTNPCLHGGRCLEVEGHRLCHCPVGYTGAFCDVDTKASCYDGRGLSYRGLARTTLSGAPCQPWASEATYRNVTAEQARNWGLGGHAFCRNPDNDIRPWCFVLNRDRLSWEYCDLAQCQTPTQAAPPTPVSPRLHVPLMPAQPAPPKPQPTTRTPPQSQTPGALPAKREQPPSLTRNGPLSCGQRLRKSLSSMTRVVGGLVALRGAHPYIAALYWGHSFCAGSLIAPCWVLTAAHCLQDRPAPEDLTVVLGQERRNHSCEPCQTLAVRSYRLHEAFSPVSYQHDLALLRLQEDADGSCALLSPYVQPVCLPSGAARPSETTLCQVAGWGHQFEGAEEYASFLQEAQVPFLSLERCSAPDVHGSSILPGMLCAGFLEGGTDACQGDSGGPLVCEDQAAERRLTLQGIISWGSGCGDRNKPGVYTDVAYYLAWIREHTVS

Cytochrome P450 2D6 = Cytochrome P450 2D6 (Homo sapiens, UniProt P10635);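 also: CYP2D6 member of a cytochrome P450 panel assay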
Chain of Cytochrome P450 2D6 (P10635 whole entry): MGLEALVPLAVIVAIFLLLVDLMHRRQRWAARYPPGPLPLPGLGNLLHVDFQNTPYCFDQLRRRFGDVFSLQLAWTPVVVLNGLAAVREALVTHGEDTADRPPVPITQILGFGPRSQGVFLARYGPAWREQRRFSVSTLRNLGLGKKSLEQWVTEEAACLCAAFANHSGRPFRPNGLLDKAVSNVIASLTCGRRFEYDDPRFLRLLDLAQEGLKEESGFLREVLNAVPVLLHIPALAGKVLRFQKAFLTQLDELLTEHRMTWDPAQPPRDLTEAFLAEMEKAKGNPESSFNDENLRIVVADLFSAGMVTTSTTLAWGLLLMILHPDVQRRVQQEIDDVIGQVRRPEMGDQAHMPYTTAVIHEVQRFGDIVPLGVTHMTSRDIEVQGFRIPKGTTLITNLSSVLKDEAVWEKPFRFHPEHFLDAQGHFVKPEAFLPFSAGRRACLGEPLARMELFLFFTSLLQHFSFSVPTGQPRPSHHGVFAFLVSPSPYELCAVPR

Cytochrome P450 1A2 = biological target: T4, Cytochrome P450 1A2 (Homo sapiens, UniProt P05177);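 also: PubChem cytochrome P450 panel assay, CYP1A2 panel member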
T4 sequence (P05177 whole entry): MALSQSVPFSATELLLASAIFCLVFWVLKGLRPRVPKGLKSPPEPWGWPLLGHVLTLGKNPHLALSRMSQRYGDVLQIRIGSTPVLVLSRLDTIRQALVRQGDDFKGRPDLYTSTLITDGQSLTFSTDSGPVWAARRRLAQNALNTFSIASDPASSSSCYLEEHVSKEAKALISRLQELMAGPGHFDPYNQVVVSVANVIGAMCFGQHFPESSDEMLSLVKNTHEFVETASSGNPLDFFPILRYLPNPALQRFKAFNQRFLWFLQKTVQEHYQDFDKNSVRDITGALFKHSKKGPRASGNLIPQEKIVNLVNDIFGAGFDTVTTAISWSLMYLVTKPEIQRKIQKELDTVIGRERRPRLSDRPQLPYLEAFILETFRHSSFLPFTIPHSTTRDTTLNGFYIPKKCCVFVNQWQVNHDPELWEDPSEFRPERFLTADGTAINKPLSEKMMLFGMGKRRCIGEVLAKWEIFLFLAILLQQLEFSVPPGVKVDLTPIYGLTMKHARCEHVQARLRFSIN

Cytochrome P450 3A4 = Cytochrome P450 3A4 (Homo sapiens, UniProt P08684);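 also: CYP3A4 tested as one member of a cytochrome P450 panel screen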
Chain of Cytochrome P450 3A4 (P08684 whole entry): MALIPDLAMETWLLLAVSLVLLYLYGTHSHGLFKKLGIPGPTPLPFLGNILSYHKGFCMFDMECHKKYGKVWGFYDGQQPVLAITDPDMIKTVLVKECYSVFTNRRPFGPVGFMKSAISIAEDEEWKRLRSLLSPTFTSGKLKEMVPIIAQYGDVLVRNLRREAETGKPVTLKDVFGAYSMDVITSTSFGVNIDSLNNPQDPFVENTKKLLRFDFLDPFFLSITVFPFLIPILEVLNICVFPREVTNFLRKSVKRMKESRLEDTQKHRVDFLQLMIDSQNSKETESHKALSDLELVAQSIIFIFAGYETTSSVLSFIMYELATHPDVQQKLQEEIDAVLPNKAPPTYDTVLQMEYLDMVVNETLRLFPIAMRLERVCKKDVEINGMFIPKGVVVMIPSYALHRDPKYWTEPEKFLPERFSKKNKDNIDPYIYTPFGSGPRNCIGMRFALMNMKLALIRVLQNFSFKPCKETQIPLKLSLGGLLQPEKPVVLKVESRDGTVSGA

[14] = biological target: 72 kDa type IV collagenase (Homo sapiens, UniProt P08253); test: Dose Response validation of uHTS RPN11 inhibitor hits using a MMP-2 Fluorescence assay.; assay type: functional
Chain of 72 kDa type IV collagenase (P08253 whole entry): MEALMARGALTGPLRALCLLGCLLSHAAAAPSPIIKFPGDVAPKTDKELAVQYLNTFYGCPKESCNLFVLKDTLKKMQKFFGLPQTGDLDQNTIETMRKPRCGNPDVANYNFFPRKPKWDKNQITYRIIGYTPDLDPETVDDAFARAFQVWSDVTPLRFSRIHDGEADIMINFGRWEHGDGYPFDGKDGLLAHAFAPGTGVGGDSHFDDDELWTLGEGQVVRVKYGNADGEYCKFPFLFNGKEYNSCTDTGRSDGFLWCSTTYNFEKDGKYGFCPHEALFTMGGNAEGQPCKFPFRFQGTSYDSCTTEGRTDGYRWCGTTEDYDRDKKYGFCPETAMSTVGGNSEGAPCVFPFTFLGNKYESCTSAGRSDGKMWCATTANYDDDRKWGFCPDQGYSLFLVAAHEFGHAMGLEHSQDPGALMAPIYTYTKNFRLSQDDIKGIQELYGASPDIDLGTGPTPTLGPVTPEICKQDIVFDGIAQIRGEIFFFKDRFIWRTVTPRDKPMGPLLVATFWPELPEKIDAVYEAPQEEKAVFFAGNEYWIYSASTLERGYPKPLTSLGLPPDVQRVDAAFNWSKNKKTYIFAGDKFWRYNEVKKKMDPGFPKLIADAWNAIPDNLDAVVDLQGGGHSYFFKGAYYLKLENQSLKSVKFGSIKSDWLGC

Prothrombin = Prothrombin (Bos taurus, UniProt P00735); test: thrombin protease inhibitors – biochemical, fluorescence polarization, uHTS hits, dose response (AID 602369); assay type: functional
[15] = biological target: 26S proteasome non-ATPase regulatory subunit 14 (Homo sapiens, UniProt O00487); test: inhibition of proteasome subunit RPN11 – biochemical, fluorescence polarization, uHTS hits, confirmation (AID 602368); assay type: functional
Chain of 26S proteasome non-ATPase regulatory subunit 14 (O00487 whole entry): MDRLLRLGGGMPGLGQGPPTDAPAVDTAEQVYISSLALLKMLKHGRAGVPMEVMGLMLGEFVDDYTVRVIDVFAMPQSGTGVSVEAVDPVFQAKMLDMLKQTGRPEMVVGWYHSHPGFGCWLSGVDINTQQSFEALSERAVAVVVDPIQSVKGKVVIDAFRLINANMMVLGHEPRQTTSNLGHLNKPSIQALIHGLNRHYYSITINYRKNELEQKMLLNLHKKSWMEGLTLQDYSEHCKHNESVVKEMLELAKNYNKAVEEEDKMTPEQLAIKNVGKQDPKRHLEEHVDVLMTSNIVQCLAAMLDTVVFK

[16] = Trypanosoma cruzi growth suppression in host cells – NIH3T3 host cells, beta-gal luminescence, confirmation (AID 2044); assay type: functional, cell-based;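 also: intracellular parasites grown in NIH/3T3 mouse fibroblasts as host cells; luminescent beta-galactosidase reporter signal from transgenic T. cruzi replicating inside host cells; inhibitors lower the luminescence signal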
[17] = NIH3T3 cell viability loss – ATP luminescence, mouse fibroblasts, counter-screen, dose response (AID 2010); assay type: functional, cell-based;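 also: cells exposed to compound for about 90 hours before reading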
Cytochrome P450 2C19 = Cytochrome P450 2C19 (Homo sapiens, UniProt P33261); test: Cytochrome panel assay with activity outcomes. Panel member name: p450-cyp2c19 Compounds with AC50 equal or less than 10 uM are considered active; assay type: functional; conditions: read-out: AC50
Chain of Cytochrome P450 2C19 (P33261 whole entry): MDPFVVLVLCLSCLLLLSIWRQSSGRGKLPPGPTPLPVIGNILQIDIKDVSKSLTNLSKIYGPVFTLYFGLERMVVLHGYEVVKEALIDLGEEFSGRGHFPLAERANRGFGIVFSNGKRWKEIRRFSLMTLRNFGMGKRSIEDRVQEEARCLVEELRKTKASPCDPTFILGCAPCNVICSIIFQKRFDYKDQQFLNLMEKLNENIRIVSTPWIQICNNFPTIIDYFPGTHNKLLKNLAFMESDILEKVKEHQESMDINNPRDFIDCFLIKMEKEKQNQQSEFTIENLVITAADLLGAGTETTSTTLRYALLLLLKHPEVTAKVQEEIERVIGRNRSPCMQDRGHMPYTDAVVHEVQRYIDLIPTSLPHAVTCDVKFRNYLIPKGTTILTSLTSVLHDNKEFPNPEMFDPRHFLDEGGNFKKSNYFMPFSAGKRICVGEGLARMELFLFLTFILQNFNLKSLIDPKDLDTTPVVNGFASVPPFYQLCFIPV

P388/ADR = test: cells; assay type: functional; conditions: Mus musculus
SN12K1 = test: cells; assay type: functional; conditions: Homo sapiens
P388 = test: cells; assay type: functional; conditions: Mus musculus
[18] = biological target: T5, Carboxy-terminal domain RNA polymerase II polypeptide A small phosphatase 1 (Homo sapiens, UniProt Q9GZU7); test: CTDSP1 inhibitors, concentration-response, biochemical, absorbance readout, ultra-high-throughput screen actives (AID 540297); assay type: functional
T5 sequence (Q9GZU7 whole entry): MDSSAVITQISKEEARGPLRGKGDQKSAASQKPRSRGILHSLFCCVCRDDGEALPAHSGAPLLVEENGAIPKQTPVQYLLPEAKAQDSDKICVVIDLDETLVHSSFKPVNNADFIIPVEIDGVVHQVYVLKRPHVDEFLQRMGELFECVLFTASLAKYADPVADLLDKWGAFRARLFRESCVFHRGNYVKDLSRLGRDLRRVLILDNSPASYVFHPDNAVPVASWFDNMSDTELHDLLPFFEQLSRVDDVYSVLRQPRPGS

SMILES: CC(C)C(=O)Nc1ccc(C(=O)NCc2cccnc2)cc1
- EC50 (BJ [1]): 19.4 µM (inconclusive)
- EC50 [2]: > 150 µM (not active)
- EC50 (BJ [3]): 3.86 µM (active)
- EC50 (BJ [4]): 18.9 µM (active)
- EC50 (BJ [5]): > 150 µM (not active)

SMILES: CCN(CC)Cc1c(O)ccc2c1O/C(=C\C=C\c1ccccc1)C2=O
- EC50 (BJ [1]): > 150 µM (inconclusive)
- EC50 [2]: 55.7 µM (active)
- AC50 [6]: 47.6 µM (active)
- EC50 [7]: 16.5 µM (active)
- EC50 (BJ [3]): > 150 µM (not active)
- AC50 [8]: 1.96 µM (active)
- EC50 [9]: 29.6 µM (active)
- AC50 (INS1): > 120 µM (inactive)
- EC50 (BJ [4]): > 133 µM (inactive)
- EC50 (H4): > 120 µM (not active)
- EC50 (BJ [5]): > 150 µM (not active)
- AC50 [10]: 16.6 µM (active)

SMILES: CN1CCN(c2ccc(NC(=S)NC(=O)c3cccc4ccccc34)cc2)CC1
- AC50 [6]: 9 µM (active)

SMILES: O=C(NCc1cccnc1)c1ccc(NC(=O)c2ccc([N+](=O)[O-])cc2)cc1
- EC50 (BJ [1]): > 150 µM (not active)
- EC50 [2]: > 150 µM (not active)
- EC50 (BJ [3]): 15.9 µM (inconclusive)
- AC50 (INS1): < 0.195 µM (active)
- EC50 (BJ [4]): > 66.7 µM (inactive)
- EC50 (BJ [5]): > 150 µM (not active)

SMILES: Cc1cc(Cl)ccc1OCC(=O)Nc1ccccc1CO
- IC50 [11]: > 100 µM (inactive)
- IC50 [12]: > 100 µM (not active)

SMILES: C=C(C)C(=O)Nc1cccc(C2=NOC3(C2)C[C@H](C(N)=O)N(C(=O)CC)C3)c1 (stereo not given in full)
- IC50 [13]: 4.32 µM (active)
- IC50 (Coagulation factor XII): > 50 µM (inactive)

SMILES: C#CCN[C@@H](C)Cc1ccccc1
- AC50 (Cytochrome P450 2D6): 25.1 µM (inconclusive)
- AC50 (Cytochrome P450 1A2): 15.8 µM (inconclusive)
- AC50 (Cytochrome P450 3A4): inconclusive

SMILES: CCOC(=O)NC(=O)/C(C#N)=C/c1ccc(N(C)C)cc1
- IC50 [14]: > 100 µM (inactive)
- IC50 (Prothrombin): 25.6 µM (active)
- IC50 [15]: 14.7 µM (active)

SMILES: CN(C)CCCn1c(-c2ccccc2)nc(=S)c2c1CCCC2
- IC50 [11]: > 100 µM (inactive)
- IC50 [12]: > 100 µM (not active)
- EC50 [16]: 697 nM (active)
- EC50 [17]: > 60 µM (not active)

SMILES: CCOC(=O)c1c(C)nc2c(c1-c1ccccc1)C(=O)CCC2
- AC50 (Cytochrome P450 3A4): inconclusive

SMILES: O=C(C1CCN(S(=O)(=O)N2CCOCC2)CC1)N1CCN(Cc2ccccc2)CC1
- AC50 (Cytochrome P450 2C19): 14.1 µM (inconclusive)
- AC50 (Cytochrome P450 3A4): inconclusive

SMILES: COc1ccccc1NC(=O)CCc1nc2sc3c(c2c(=O)[nH]1)CCCC3
- IC50 [14]: > 100 µM (inactive)
- IC50 (Prothrombin): 47.9 µM (active)
- IC50 [15]: 33.1 µM (active)

SMILES: C/C(=N\NC(=S)N1CC2CCC(CC2)C1)c1nccs1
- GI50 (P388/ADR): < 0.01 µM (active)
- GI50 (SN12K1): < 0.01 µM (active)
- GI50 (P388): < 0.01 µM (active)

SMILES: Cc1ccc(CSCC(=O)N/N=C/c2ccc(OCC(=O)Nc3ccc(C)cc3)cc2)cc1
- IC50 [18]: 3.43 µM (active)
- IC50 [14]: > 100 µM (inactive)
- IC50 (Prothrombin): 96.9 µM (active)
- IC50 [15]: 11.9 µM (active)

SMILES: O=C(CCl)NC(Cc1ccc(F)cc1)C(=O)O (stereo not given)
- GI50 (P388/ADR): > 100 µM (inactive)
- GI50 (SN12K1): > 100 µM (inactive)
- GI50 (P388): > 100 µM (inactive)

SMILES: Cc1c2ccnc(C(F)(F)F)c2cc2c1[nH]c1ccccc12
- GI50 (P388/ADR): 78.9 µM (inactive)
- GI50 (SN12K1): 58.5 µM (inactive)
- GI50 (P388): > 125 µM (inactive)

SMILES: CC(O)C(O)C(N)CC=O (stereo not given)
- GI50 (P388/ADR): > 500 µM (inactive)
- GI50 (SN12K1): > 500 µM (inactive)
- GI50 (P388): > 500 µM (inactive)
